Results reported in patent US20050282755A1, “Compositions having antimicrobial activity and uses thereof” (priority 2004, published 2005).
Converted amounts (≈) assume the structure as drawn. Where two headings read alike, the source gives them in different places. Non-standard residues stand in square brackets, D forms with d. Residues, ends and D or L forms follow the SMILES beside them. *: point of attachment. Lauroyl = CCCCCCCCCCCC(=O)*

Key:
Format in all cases: cell-based
[1] = tested on: Staphylococcus aureus ATCC 29213; experiment: MIC, NCCLS M7-A6 broth microdilution, cation-adjusted Mueller Hinton broth (Table 9, no superscript); settings: ATCC 29213
In short: (§1)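 MIC determined by microdilution in cation-adjusted Mueller Hinton broth after overnight growth at 37° C, defined as the lowest peptide level lacking turbidity.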

Salmonella dublin (Lane) = experiment: MIC, NCCLS M7-A6 broth microdilution (Table 9, no superscript)
In short: as §1

[2] = tested on: Propionibacterium acnes ATCC 6919
Description: A second method that was used to determine the MIC in P. acnes for selected antimicrobial agents was a non-standard broth microdilution method that used an assay buffer composed of reinforced Clostridial broth. Briefly, a log-phase bacterial culture of P. acnes was used to inoculate wells of a 96-well plate so that the final inoculum for each well contained 5×10^5 to 1×10^6 CFU/milliliter. […] Plates were incubated for 48-72 hours at 37° C. in a GasPak anaerobic chamber. The lowest concentration of peptide that contained no visible growth as evidenced by a lack of turbidity when compared to the control (no peptide) was determined as the MIC. MIC values that utilized this method of MIC determination are indicated in Table 9 with a subscript letter “d.”

[3] = tested on: Candida albicans ATCC 18804; experiment: MIC in yeasts, NCCLS M27-A2 broth microdilution, RPMI 1640 (Table 9, letter e); settings: ATCC 18804
In short: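 Plates incubated 24 to 48 hours at 37° C, with yeast seeded at 0.5×10^3–2.5×10^3 CFU/milliliter final in RPMI 1640 (glutamine, phenol red indicator). MIC was read as the lowest peptide concentration showing no visible growth.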

[4] = tested on: Escherichia coli ATCC 25922; experiment: MIC, NCCLS M7-A6 broth microdilution (Table 9, no superscript); settings: ATCC 25922
In short: as §1

[5] = tested on: Pseudomonas aeruginosa ATCC 27853; experiment: as above; settings: ATCC 27853
In short: as §1

[6] = tested on: Staphylococcus epidermidis ATCC 12228; experiment: as above; settings: ATCC 12228
In short: as §1

human red blood cells = settings: red cells of human
Description: Hemoglobin-release assays with human red blood cells (RBC) were performed to determine the hemolytic activity of granulysin peptides. Human RBCs (San Diego Blood Bank, San Diego, Calif.) were washed three times in PBS buffer (8 mM Na2HPO4, 1.5 mM KH2PO4, 140 mM NaCl and 2.7 mM KCl, pH 7.4), resuspended in PBS to the concentration of 5% (v/v). The RBC were then exposed to different peptide compositions at various concentrations (100-6.25 micromolar) and incubated at 37° C. for 60 minutes in a total volume of 120 microliters. Every experiment included a negative control without peptide and maximum control treated with 5% TX-100 for complete hemoglobin release. Samples were centrifuged for 1 minute at 13,000 g to remove debris and intact cells. The hemoglobin-containing supernatant was removed and transferred to a microwell plate. Hemoglobin release was quantified at A540 using a Versamax plate reader (Molecular Devices). The degree of hemolysis is expressed as percentage of hemolysis compared to the […], using the following formula: % hemolysis=(sample−neg. control)/(max. control−neg. control)×100.

Structure (SMILES) | MIC S. aureus [1] | MIC S. dublin (Salmonella dublin (Lane)) | MIC P. acnes [2] | MIC C. albicans [3] | MIC E. coli [4] | MIC P. aeruginosa [5] | MIC S. epidermidis [6] | Hemolytic effect on human red blood cells (human red blood cells; 6.25 Micromolar) | Hemolytic effect on human red blood cells (human red blood cells; 12.5 Micromolar) | Hemolytic effect on human red blood cells (human red blood cells; 25 Micromolar) | Hemolytic effect on human red blood cells (human red blood cells; 50 Micromolar) | Hemolytic effect on human red blood cells (human red blood cells; 100 Micromolar)
CSCC[C@H](NC(=O)[C@H](Cc1ccccc1)NC(=O)[C@H](CC(N)=O)NC(=O)[C@H](CCCNC(=N)N)NC(=O)[C@H](C)NC(=O)[C@@H](NC(=O)[C@H](CC(=O)O)NC(=O)[C@H](CCCNC(=N)N)NC(=O)[C@H](Cc1c[nH]c2ccccc12)NC(=O)[C@H](CCCNC(=N)N)NC(=O)[C@H](CO)NC(=O)[C@H](CCCNC(=N)N)NC(=O)CNC(=O)[C@@H](NC(=O)[C@H](CCCNC(=N)N)NC(=O)[C@H](C)NC(=O)[C@@H](NC(=O)[C@H](CCCNC(=N)N)NC(=O)[C@@H](NC(C)=O)[C@@H](C)O)C(C)C)[C@@H](C)O)C(C)C)C(=O)N[C@@H](CCCNC(=N)N)C(N)=O [Peptide 38] (Ac-TRVARTGRSRWRDVARNFMR-NH2) | >64 mg/L | >64 mg/L | 25 µg·days/mL | 16e ug/mL | – | – | – | – | – | – | – | –
CSCC[C@@H](NC(=O)[C@@H](Cc1ccccc1)NC(=O)[C@@H](CC(N)=O)NC(=O)[C@@H](CCCNC(=N)N)NC(=O)[C@@H](C)NC(=O)[C@@H](Cc1c[nH]c2ccccc12)NC(=O)[C@@H](CC(=O)O)NC(=O)[C@@H](CCCNC(=N)N)NC(=O)[C@@H](Cc1c[nH]c2ccccc12)NC(=O)[C@@H](CCCNC(=N)N)NC(=O)[C@@H](CO)NC(=O)[C@@H](CCCNC(=N)N)NC(=O)CNC(=O)[C@H](NC(=O)[C@@H](CCCNC(=N)N)NC(=O)[C@@H](C)NC(=O)[C@H](NC(=O)[C@@H](CCCNC(=N)N)NC(=O)[C@H](NC(C)=O)[C@H](C)O)C(C)C)[C@H](C)O)C(=O)N[C@H](CCCNC(=N)N)C(N)=O [Peptide 56, Ac-trvartgrsrwrdwarnfmr-NH2] (Ac-[dT][dR][dV][dA][dR][dT]G[dR][dS][dR][dW][dR][dD][dW][dA][dR][dN][dF][dM][dR]-NH2) | >64 mg/L | 8 mg/L (≈ 3.05 µM) | 6 µg·days/mL | 64e ug/mL | 4 mg/L (≈ 1.53 µM) | >64 mg/L | 2 mg/L (≈ 0.763 µM) | – | – | – | – | –
CCCCCCCCCCCC(=O)N[C@H](C(=O)N[C@@H](CCCNC(=N)N)C(=O)N[C@H](C(=O)N[C@@H](CO)C(=O)N[C@@H](CCCNC(=N)N)C(=O)N[C@H](C(=O)NCC(=O)N[C@@H](CCCNC(=N)N)C(=O)N[C@@H](CO)C(=O)N[C@@H](CCCNC(=N)N)C(=O)N[C@@H](Cc1c[nH]c2ccccc12)C(=O)N[C@@H](CCCNC(=N)N)C(=O)N[C@@H](CC(=O)O)C(=O)N[C@@H](Cc1c[nH]c2ccccc12)C(=O)N[C@@H](CO)C(=O)N[C@@H](CCCNC(=N)N)C(=O)N[C@@H](CC(N)=O)C(=O)N[C@@H](Cc1ccccc1)C(=O)N[C@@H](CCSC)C(=O)N[C@@H](CCCNC(=N)N)C(N)=O)[C@@H](C)O)C(C)C)[C@@H](C)O [Peptide 63] (Lauroyl-TRVSRTGRSRWRDWSRNFMR-NH2) | 8 mg/L (≈ 2.87 µM) | 16 mg/L (≈ 5.73 µM) | 12.5 µg·days/mL | 16e ug/mL | 32 mg/L (≈ 11.5 µM) | 64 mg/L (≈ 22.9 µM) | 2 mg/L (≈ 0.716 µM) | – | – | – | – | –
CCCCCCCCCCCC(=O)N[C@H](C(=O)N[C@@H](CCCNC(=N)N)C(=O)N[C@H](C(=O)N[C@@H](C)C(=O)N[C@@H](CCCNC(=N)N)C(=O)N[C@H](C(=O)NCC(=O)N[C@@H](CCCNC(=N)N)C(=O)N[C@@H](CO)C(=O)N[C@@H](CCCNC(=N)N)C(=O)N[C@@H](Cc1c[nH]c2ccccc12)C(=O)N[C@@H](CCCNC(=N)N)C(=O)N[C@@H](CC(=O)O)C(=O)N[C@H](C(=O)N[C@@H](C)C(=O)N[C@@H](CCCNC(=N)N)C(=O)N[C@@H](CC(N)=O)C(=O)N[C@@H](Cc1ccccc1)C(=O)N[C@@H](CCSC)C(=O)N[C@@H](CCCNC(=N)N)C(N)=O)C(C)C)[C@@H](C)O)C(C)C)[C@@H](C)O [Peptide 69] (Lauroyl-TRVARTGRSRWRDVARNFMR-NH2) | 4 mg/L (≈ 1.5 µM) | 16 mg/L (≈ 5.99 µM) | 12.5 µg·days/mL | 16e ug/mL | – | – | – | – | – | – | – | –
CCCCCCCCCCCC(=O)N[C@@H](C(=O)N[C@H](CCCNC(=N)N)C(=O)N[C@@H](C(=O)N[C@H](C)C(=O)N[C@H](CCCNC(=N)N)C(=O)N[C@@H](C(=O)NCC(=O)N[C@H](CCCNC(=N)N)C(=O)N[C@H](CO)C(=O)N[C@H](CCCNC(=N)N)C(=O)N[C@H](Cc1c[nH]c2ccccc12)C(=O)N[C@H](CCCNC(=N)N)C(=O)N[C@H](CC(=O)O)C(=O)N[C@H](Cc1c[nH]c2ccccc12)C(=O)N[C@H](C)C(=O)N[C@H](CCCNC(=N)N)C(=O)N[C@H](CC(N)=O)C(=O)N[C@H](Cc1ccccc1)C(=O)N[C@H](CCSC)C(=O)N[C@H](CCCNC(=N)N)C(N)=O)[C@H](C)O)C(C)C)[C@H](C)O [Peptide 77, Lauryl-trvartgrsrwrdwarnfmr-NH2] (Lauroyl-[dT][dR][dV][dA][dR][dT]G[dR][dS][dR][dW][dR][dD][dW][dA][dR][dN][dF][dM][dR]-NH2) | 16 mg/L (≈ 5.8 µM) | 16 mg/L (≈ 5.8 µM) | 12.5 µg·days/mL | 8e ug/mL | – | – | – | – | – | – | – | –

Continued, in another order:

MIC S. aureus [1] | MIC S. dublin (Salmonella dublin (Lane)) | MIC P. acnes [2] | MIC C. albicans [3] | MIC E. coli [4] | MIC P. aeruginosa [5] | MIC S. epidermidis [6] | Structure (SMILES) | Hemolytic effect on human red blood cells (human red blood cells; 6.25 Micromolar) | Hemolytic effect on human red blood cells (human red blood cells; 12.5 Micromolar) | Hemolytic effect on human red blood cells (human red blood cells; 25 Micromolar) | Hemolytic effect on human red blood cells (human red blood cells; 50 Micromolar) | Hemolytic effect on human red blood cells (human red blood cells; 100 Micromolar)
– | – | – | – | 8 mg/L (≈ 2.58 µM) | >64 mg/L | 2 mg/L (≈ 0.644 µM) | CCCCCCCCCCCC(=O)N[C@@H](C(=O)N[C@H](CCCNC(=N)N)C(=O)N[C@@H](C(=O)N[C@H](CO)C(=O)N[C@H](CCCNC(=N)N)C(=O)N[C@@H](C(=O)NCC(=O)N[C@H](CCCNC(=N)N)C(=O)N[C@H](CO)C(=O)N[C@H](CCCNC(=N)N)C(=O)N[C@H](Cc1c[nH]c2ccccc12)C(=O)N[C@H](CCCNC(=N)N)C(=O)N[C@H](CC(=O)O)C(=O)N[C@H](Cc1c[nH]c2ccccc12)C(=O)N[C@H](CO)C(=O)N[C@H](CCCNC(=N)N)C(=O)N[C@H](CC(N)=O)C(=O)N[C@H](Cc1ccccc1)C(=O)N[C@H](CCSC)C(=O)N[C@H](CCCNC(=N)N)C(=O)N[C@H](C)C(=O)N[C@H](C)C(=O)N[C@@H](CCCCNC(C)=O)C(N)=O)[C@H](C)O)C(C)C)[C@H](C)O [Peptide 85, Lauryl-trvsrtgrsrwrdwsrnfmraaK(Ac)-NH2] | 16% | 26% | 36% | 53% | 83%
4 mg/L (≈ 1.97 µM) | 4 mg/L (≈ 1.97 µM) | 25 µg·days/mL | 32e ug/mL | – | – | – | CCCCCCCCCCCC(=O)N[C@H](CCCNC(=N)N)C(=O)N[C@H](CO)C(=O)N[C@H](CCCNC(=N)N)C(=O)N[C@H](Cc1c[nH]c2ccccc12)C(=O)N[C@H](CCCNC(=N)N)C(=O)N[C@H](CC(=O)O)C(=O)N[C@H](Cc1c[nH]c2ccccc12)C(=O)N[C@H](CO)C(=O)N[C@H](CCCNC(=N)N)C(=O)N[C@H](CC(N)=O)C(=O)N[C@H](Cc1ccccc1)C(=O)N[C@H](CCSC)C(=O)N[C@H](CCCNC(=N)N)C(N)=O [Peptide 89, Lauryl-rsrwrdwsrnfmr-NH2] (Lauroyl-[dR][dS][dR][dW][dR][dD][dW][dS][dR][dN][dF][dM][dR]-NH2) | – | – | – | – | –
>64 mg/L | >64 mg/L | 25 µg·days/mL | 16e ug/mL | – | – | – | CSCC[C@H](NC(=O)[C@H](Cc1ccccc1)NC(=O)[C@H](CC(N)=O)NC(=O)[C@H](CCCNC(=N)N)NC(=O)[C@H](CO)NC(=O)[C@H](Cc1c[nH]c2ccccc12)NC(=O)[C@H](CC(=O)O)NC(=O)[C@H](CCCNC(=N)N)NC(=O)[C@H](Cc1c[nH]c2ccccc12)NC(=O)[C@H](CCCNC(=N)N)NC(=O)[C@H](CO)NC(=O)[C@H](CCCNC(=N)N)NC(C)=O)C(=O)N[C@@H](CCCNC(=N)N)C(N)=O [Peptide 91, Ac-RSRWRDWSRNFMR-NH2] (Ac-RSRWRDWSRNFMR-NH2) | – | – | – | – | –
>64 mg/L | >64 mg/L | 25 µg·days/mL | 8e ug/mL | – | – | – | CSCC[C@H](NC(=O)[C@H](Cc1ccccc1)NC(=O)[C@H](CC(N)=O)NC(=O)[C@H](CCCNC(=N)N)NC(=O)[C@H](C)NC(=O)[C@@H](NC(=O)[C@H](CC(=O)O)NC(=O)[C@H](CCCNC(=N)N)NC(=O)[C@H](Cc1c[nH]c2ccccc12)NC(=O)[C@H](CCCNC(=N)N)NC(=O)[C@H](CO)NC(=O)[C@H](CCCNC(=N)N)NC(C)=O)C(C)C)C(=O)N[C@@H](CCCNC(=N)N)C(N)=O [Peptide 92, Ac-RSRWRDVARNFMR-NH2] (Ac-RSRWRDVARNFMR-NH2) | – | – | – | – | –
